Reference: PubChem BioAssay (NCI)
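48-hour exposure; five concentrations; linearly interpolated endpoints. TGI denotes the concentration required for complete inhibition of growth.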

Key:
Assay in all cases: NCI-60 cell line screen, 48 h
[1] = test system: NCI-H522 lung
[2] = test system: M14 melanoma
[3] = test system: A498 renal
[4] = test system: U251 CNS
[5] = test system: MCF7 breast
[6] = test system: HCT-116 colon
[7] = test system: NCI-H226 lung
[8] = test system: MALME-3M melanoma
[9] = test system: HOP-62 NSCLC
[10] = test system: PC-3 prostate

CC(NC(=O)N(C)C)NC(=O)N(C)C
TGI [1]: > 10 µM
TGI [2]: > 10 µM
TGI [3]: > 10 µM
TGI [4]: > 10 µM
TGI [5]: > 10 µM
TGI [6]: > 10 µM
TGI [7]: > 10 µM
TGI [8]: > 10 µM
TGI [9]: > 10 µM
TGI [10]: > 10 µM

CC(=O)OC1C(COC(=O)c2ccccc2)OC(Nc2ncc(-c3ccc(Br)cc3)s2)C(OC(=O)c2ccccc2)C1OC(=O)c1ccccc1 (centres undefined)
TGI [1]: > 100 µM
TGI [2]: > 100 µM
TGI [4]: > 100 µM
TGI [5]: > 100 µM
TGI [6]: > 100 µM
TGI [7]: > 100 µM
TGI [8]: > 100 µM
TGI [9]: > 100 µM
TGI [10]: > 100 µM

O=c1cc(-c2cc(O)c(O)c(-c3c(O)cc4oc(-c5ccc(O)c(O)c5)cc(=O)c4c3O)c2)oc2cc(O)cc(O)c12
TGI [2]: > 25 µM
TGI [3]: > 25 µM
TGI [4]: > 25 µM
TGI [5]: > 25 µM
TGI [6]: > 25 µM
TGI [7]: > 25 µM
TGI [8]: > 25 µM
TGI [9]: > 25 µM
TGI [10]: > 25 µM

O=C1c2ccccc2NC(=S)[C@@H]2CCCN12
TGI [1]: > 100 µM
TGI [2]: > 100 µM
TGI [3]: > 100 µM
TGI [4]: > 100 µM
TGI [5]: > 100 µM
TGI [6]: > 100 µM
TGI [7]: > 100 µM
TGI [8]: > 100 µM
TGI [9]: > 100 µM
TGI [10]: > 100 µM

CO[C@@H]1O[C@H](C(=O)c2ccccc2)[C@H]2OC(C)(C)O[C@@H]12
TGI [1]: > 100 µM
TGI [2]: > 100 µM
TGI [3]: > 100 µM
TGI [4]: > 100 µM
TGI [5]: > 100 µM
TGI [6]: > 100 µM
TGI [7]: > 100 µM
TGI [9]: > 100 µM
TGI [10]: > 100 µM

N#Cc1nc(C2CCC2)oc1N
TGI [1]: > 100 µM
TGI [2]: > 100 µM
TGI [3]: > 100 µM
TGI [4]: > 100 µM
TGI [5]: > 100 µM
TGI [6]: > 100 µM
TGI [7]: > 100 µM
TGI [8]: > 100 µM
TGI [9]: > 100 µM
TGI [10]: > 100 µM

COc1cc2ccc1OCc1cccc(n1)COc1ccc(cc1OC)C=Nc1ccc(cc1)N=C2
TGI [1]: > 100 µM
TGI [2]: > 100 µM
TGI [3]: > 100 µM
TGI [4]: > 100 µM
TGI [5]: > 100 µM
TGI [6]: > 100 µM
TGI [7]: > 100 µM
TGI [8]: > 100 µM
TGI [9]: > 100 µM
TGI [10]: > 100 µM

COC1=C(C)C(=O)c2c(c(COC(N)=O)c3n2CC(OC(C)=O)C3OC(C)=O)C1=O (centres undefined)
TGI [1]: 0.0379 µM
TGI [2]: 0.514 µM
TGI [3]: 1.34 µM
TGI [4]: 0.789 µM
TGI [5]: 1.23 µM
TGI [6]: 0.129 µM
TGI [7]: 1.39 µM
TGI [8]: 0.156 µM
TGI [9]: 0.563 µM
TGI [10]: 0.402 µM

COC(=O)[C@H](Cc1ccccc1)NC(=O)CCCCCCC(=O)NO
TGI [1]: 30.6 µM
TGI [2]: > 100 µM
TGI [4]: 87.5 µM
TGI [5]: > 100 µM
TGI [6]: 27 µM
TGI [7]: > 100 µM
TGI [8]: 38.6 µM
TGI [10]: 38.2 µM

O=c1[nH]c(Nc2cccc(CO)c2)nc2nc[nH]c12
TGI [1]: > 100 µM
TGI [2]: > 100 µM
TGI [4]: > 100 µM
TGI [5]: > 100 µM
TGI [6]: > 100 µM
TGI [7]: > 100 µM
TGI [8]: > 100 µM
TGI [9]: > 100 µM
TGI [10]: > 100 µM

COc1cc(NC(C)=O)ccc1C(=O)NN1C(=O)/C(=C/c2ccco2)N=C1c1ccccc1
TGI [1]: > 50 µM
TGI [2]: > 50 µM
TGI [3]: > 50 µM
TGI [5]: > 50 µM
TGI [6]: > 50 µM
TGI [8]: > 50 µM
TGI [9]: > 50 µM
TGI [10]: > 50 µM

CCCCn1c(-c2ccc([N+](=O)[O-])cc2)cs/c1=N/N=C1\C(=O)Nc2ccc(Br)cc21
TGI [1]: 36.7 µM
TGI [2]: 27.1 µM
TGI [3]: 34.3 µM
TGI [4]: 22.9 µM
TGI [5]: 17.7 µM
TGI [6]: 29.3 µM
TGI [7]: 38.3 µM
TGI [8]: > 100 µM
TGI [9]: 37.9 µM

Nc1nn2c(=O)c3ccccc3nc2s1
TGI [1]: 50.3 µM
TGI [2]: 93.8 µM
TGI [3]: > 100 µM
TGI [4]: > 100 µM
TGI [5]: > 100 µM
TGI [6]: > 100 µM
TGI [7]: 91.1 µM
TGI [9]: > 100 µM
TGI [10]: > 100 µM

COCCOCCOC1=CC(=O)c2c(O)ccc(O)c2C1=O
TGI [1]: 2.93 µM
TGI [2]: 2.14 µM
TGI [3]: 5.08 µM
TGI [5]: 2.88 µM
TGI [6]: 1.05 µM
TGI [7]: 3.88 µM
TGI [8]: 0.399 µM
TGI [9]: 3.44 µM
TGI [10]: 6.73 µM

CC(=O)OCc1c(O)c2c(c(O)c1COC(C)=O)C(=O)C=CC2=O
TGI [2]: 23.7 µM
TGI [3]: 34.7 µM
TGI [4]: 28.5 µM
TGI [6]: 25.6 µM
TGI [7]: 32.5 µM
TGI [8]: 20.5 µM
TGI [9]: 37.4 µM

CCCCCCCCCc1nn2c(Cc3ccccc3)nnc2s1
TGI [1]: 27 µM
TGI [2]: 38.6 µM
TGI [3]: 34.2 µM
TGI [4]: 36.6 µM
TGI [5]: 73.6 µM
TGI [6]: 31.9 µM
TGI [9]: 39.6 µM
TGI [10]: 51 µM

O=C1CSC2=NC3=C(COC/C3=C\c3ccc(Br)cc3)C(c3ccc(Br)cc3)N12 (centres undefined)
TGI [1]: > 100 µM
TGI [2]: 94.6 µM
TGI [3]: > 100 µM
TGI [4]: > 100 µM
TGI [5]: > 100 µM
TGI [6]: > 100 µM
TGI [7]: > 100 µM
TGI [9]: > 100 µM
TGI [10]: > 100 µM

CSc1n[nH]c(N)c1C(=O)Nc1ccccc1
TGI [1]: > 100 µM
TGI [2]: > 100 µM
TGI [3]: > 100 µM
TGI [4]: > 100 µM
TGI [5]: > 100 µM
TGI [6]: > 100 µM
TGI [7]: > 100 µM
TGI [8]: > 100 µM
TGI [10]: > 100 µM

CCOP(=O)(/C=C\n1ccc(N)nc1=O)OCC
TGI [1]: > 100 µM
TGI [2]: > 100 µM
TGI [4]: > 100 µM
TGI [5]: > 100 µM
TGI [6]: > 100 µM
TGI [7]: > 100 µM
TGI [9]: > 100 µM
TGI [10]: > 100 µM

CN(C)CCNC(=O)c1cccc2nc(-c3ccccc3)oc12
TGI [3]: > 94.3 µM
TGI [4]: > 100 µM
TGI [5]: 28.2 µM
TGI [6]: > 100 µM
TGI [7]: 84 µM
TGI [8]: 99 µM
TGI [9]: > 100 µM

COC1CC(OC2CCC3(C)C(=CCC4C3C(OC(C)=O)C(OC(=O)CC(C)C)C3(C)C(C(C)=O)CCC43O)C2)OC(C)C1OC1CC(OC)C(OC2CC(OC)C(OC3OC(C)C(OC4OC(CO)C(O)C(O)C4O)C(OC)C3O)C(C)O2)C(C)O1 (centres undefined)
TGI [1]: > 75 µM
TGI [2]: > 75 µM
TGI [3]: > 75 µM
TGI [4]: > 75 µM
TGI [5]: > 75 µM
TGI [6]: > 75 µM
TGI [7]: > 75 µM
TGI [9]: > 75 µM
TGI [10]: > 75 µM

COc1cc2c(cc1OC)-c1cc3ccccc3c(=O)n1CC2
TGI [1]: 40 µM
TGI [2]: 80.3 µM
TGI [4]: 97.9 µM
TGI [5]: > 100 µM
TGI [6]: 33.9 µM
TGI [7]: > 100 µM
TGI [8]: 61.5 µM
TGI [9]: 37.1 µM
TGI [10]: 40.6 µM

COc1nc(C#CC(C)(C)C)nc(OC)n1
TGI [1]: 49.3 µM
TGI [2]: > 100 µM
TGI [3]: > 100 µM
TGI [4]: > 100 µM
TGI [5]: 89.5 µM
TGI [6]: > 100 µM
TGI [8]: 46.9 µM
TGI [9]: > 100 µM
TGI [10]: > 100 µM
